# Activity calls are given as the source filed them. No cut-off for these calls is given here.
# Key:
# Format in all cases: cell-based
# F9 [1] = assay: Activation of RAR in mouse F9 cells assessed as increase in CYP26A1 mRNA level at 10 uM after 48 hrs by RT-PCR analysis
# [2] = molecular target: T1, Retinoic acid receptor (Homo sapiens) (UniProt P13631+P10826+P10276); assay: Activation of RAR in human HepG2 cells assessed as increase in CAR mRNA level at 10 uM after 24 hrs by RT-PCR analysis
# F9 [3] = assay: Activation of RAR in mouse F9 cells assessed as increase in CYP26A1 mRNA level at 10 uM after 48 hrs by RT-PCR analysis in presence of RAR antagonist BMS493
# [4] = molecular target: T2, Peroxisome proliferator-activated receptor delta (Homo sapiens) (UniProt Q03181); assay: Agonist activity at PPARdelta (unknown origin) expressed in HEK293 cells assessed as transcriptional activation at 1 to 25 uM after 40 hrs by luciferase reporter gene assay
# T2 sequence (whole entry): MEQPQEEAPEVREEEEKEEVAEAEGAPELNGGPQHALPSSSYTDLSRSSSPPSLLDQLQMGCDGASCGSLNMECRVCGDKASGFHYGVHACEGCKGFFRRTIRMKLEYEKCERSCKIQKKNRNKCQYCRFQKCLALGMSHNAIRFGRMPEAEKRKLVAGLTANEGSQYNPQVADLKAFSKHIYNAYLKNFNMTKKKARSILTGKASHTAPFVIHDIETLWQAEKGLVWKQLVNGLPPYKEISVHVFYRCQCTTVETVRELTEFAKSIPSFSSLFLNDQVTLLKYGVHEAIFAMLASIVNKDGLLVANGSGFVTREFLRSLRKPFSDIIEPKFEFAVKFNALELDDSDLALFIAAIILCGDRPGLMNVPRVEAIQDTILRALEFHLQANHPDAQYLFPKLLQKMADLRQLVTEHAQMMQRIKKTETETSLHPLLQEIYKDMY
# [5] = molecular target: T3, Oxysterols receptor LXR-alpha (Homo sapiens) (UniProt Q13133); assay: Agonist activity at LXR-alpha (unknown origin) expressed in HEK293 cells assessed as transcriptional activation at 1 to 25 uM after 40 hrs by luciferase reporter gene assay
# T3 sequence (whole entry): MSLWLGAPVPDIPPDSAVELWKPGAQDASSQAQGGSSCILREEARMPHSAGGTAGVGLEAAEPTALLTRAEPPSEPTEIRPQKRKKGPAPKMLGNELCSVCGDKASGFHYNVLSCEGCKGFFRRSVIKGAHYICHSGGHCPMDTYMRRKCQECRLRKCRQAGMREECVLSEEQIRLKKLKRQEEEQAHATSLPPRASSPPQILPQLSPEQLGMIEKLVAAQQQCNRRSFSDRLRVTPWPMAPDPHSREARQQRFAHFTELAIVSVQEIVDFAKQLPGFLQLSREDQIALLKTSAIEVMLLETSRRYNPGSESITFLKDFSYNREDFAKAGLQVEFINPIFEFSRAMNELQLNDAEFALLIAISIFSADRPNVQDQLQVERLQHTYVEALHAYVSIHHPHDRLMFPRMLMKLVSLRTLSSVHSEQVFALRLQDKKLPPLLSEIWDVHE
# [6] = molecular target: T4, Peroxisome proliferator-activated receptor gamma (Homo sapiens) (UniProt P37231); assay: Agonist activity at PPARgamma (unknown origin) expressed in HEK293 cells assessed as transcriptional activation at 1 to 25 uM after 40 hrs by luciferase reporter gene assay
# T4 sequence (whole entry): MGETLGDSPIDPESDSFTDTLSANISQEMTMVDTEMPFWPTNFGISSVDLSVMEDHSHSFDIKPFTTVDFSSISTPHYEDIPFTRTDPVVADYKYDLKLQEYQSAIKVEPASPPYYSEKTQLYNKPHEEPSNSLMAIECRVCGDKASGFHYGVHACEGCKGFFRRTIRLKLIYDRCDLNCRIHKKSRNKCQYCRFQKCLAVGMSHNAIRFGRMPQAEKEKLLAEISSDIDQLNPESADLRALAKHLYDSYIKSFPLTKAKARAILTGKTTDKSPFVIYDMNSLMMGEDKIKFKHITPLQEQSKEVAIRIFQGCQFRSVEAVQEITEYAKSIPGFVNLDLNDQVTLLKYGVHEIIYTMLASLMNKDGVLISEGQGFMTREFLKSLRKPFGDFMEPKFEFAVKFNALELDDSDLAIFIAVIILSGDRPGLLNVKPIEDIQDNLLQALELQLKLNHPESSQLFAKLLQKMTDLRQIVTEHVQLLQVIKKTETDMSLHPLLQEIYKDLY
# [7] = molecular target: T5, Retinoic acid receptor alpha (Homo sapiens) (UniProt P10276); assay: Agonist activity at human RARalpha expressed in HEK293 cells assessed as transcriptional activation at 0.1 to 50 uM after 40 hrs by luciferase reporter gene assay
# T5 sequence (whole entry): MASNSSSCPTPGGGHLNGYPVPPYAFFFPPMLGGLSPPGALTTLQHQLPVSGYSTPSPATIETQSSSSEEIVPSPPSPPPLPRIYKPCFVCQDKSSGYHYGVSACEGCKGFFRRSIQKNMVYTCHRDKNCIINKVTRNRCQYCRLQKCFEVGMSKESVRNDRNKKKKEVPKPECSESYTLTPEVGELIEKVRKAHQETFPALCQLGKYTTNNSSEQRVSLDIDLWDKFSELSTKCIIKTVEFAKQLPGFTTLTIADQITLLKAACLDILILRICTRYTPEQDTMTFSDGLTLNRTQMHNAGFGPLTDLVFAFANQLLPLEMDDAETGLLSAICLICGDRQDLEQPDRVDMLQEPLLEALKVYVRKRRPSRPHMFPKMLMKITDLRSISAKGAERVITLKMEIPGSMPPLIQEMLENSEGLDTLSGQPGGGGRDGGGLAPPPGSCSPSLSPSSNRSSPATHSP
# [8] = molecular target: T1, Retinoic acid receptor (Homo sapiens); assay: Induction of RAR-mediated differentiation of human HL60 cells at 1 uM after 4 days by NBT assay; conditions: HL-60
# [9] = molecular target: T5, Retinoic acid receptor alpha (Homo sapiens); assay: Agonist activity at human RARalpha expressed in HEK293 cells assessed as transcriptional activation at 1 to 100 uM after 40 hrs by luciferase reporter gene assay
# [10] = molecular target: T5, Retinoic acid receptor alpha (Homo sapiens); assay: Agonist activity at human RARalpha expressed in HEK293 cells assessed as transcriptional activation at 1 to 100 uM after 40 hrs by luciferase reporter gene assay in presence of RAR antagonist LE135
# [11] = molecular target: T1, Retinoic acid receptor (Homo sapiens); assay: Induction of RAR-mediated differentiation of human HL60 cells at 1 to 25 uM after 4 days by NBT assay; conditions: HL-60
# [12] = molecular target: T6, Retinoic acid receptor RXR-alpha (Homo sapiens) (UniProt P19793); assay: Agonist activity at human RXRalpha expressed in HEK293 cells assessed as transcriptional activation up to 100 uM after 40 hrs by luciferase reporter gene assay
# T6 sequence (whole entry): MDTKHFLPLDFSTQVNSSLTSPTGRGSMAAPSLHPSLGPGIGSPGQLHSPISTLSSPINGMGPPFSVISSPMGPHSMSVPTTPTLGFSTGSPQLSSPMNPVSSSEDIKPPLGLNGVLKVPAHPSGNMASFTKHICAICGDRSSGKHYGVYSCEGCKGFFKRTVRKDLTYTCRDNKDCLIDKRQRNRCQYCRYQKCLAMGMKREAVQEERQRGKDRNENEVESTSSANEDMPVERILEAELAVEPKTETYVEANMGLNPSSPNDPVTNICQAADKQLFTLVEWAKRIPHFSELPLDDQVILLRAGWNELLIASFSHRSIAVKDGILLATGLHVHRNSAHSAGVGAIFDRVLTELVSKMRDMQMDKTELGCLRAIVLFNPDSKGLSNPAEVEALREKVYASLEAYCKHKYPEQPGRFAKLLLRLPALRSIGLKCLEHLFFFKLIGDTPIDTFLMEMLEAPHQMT
# F9 [13] = assay: Activation of RAR in mouse F9 cells assessed as increase in CYP26A1 mRNA level at 0.01 uM after 48 hrs by RT-PCR analysis
# T1 sequence (P10826 whole entry, looked up, one chain of several): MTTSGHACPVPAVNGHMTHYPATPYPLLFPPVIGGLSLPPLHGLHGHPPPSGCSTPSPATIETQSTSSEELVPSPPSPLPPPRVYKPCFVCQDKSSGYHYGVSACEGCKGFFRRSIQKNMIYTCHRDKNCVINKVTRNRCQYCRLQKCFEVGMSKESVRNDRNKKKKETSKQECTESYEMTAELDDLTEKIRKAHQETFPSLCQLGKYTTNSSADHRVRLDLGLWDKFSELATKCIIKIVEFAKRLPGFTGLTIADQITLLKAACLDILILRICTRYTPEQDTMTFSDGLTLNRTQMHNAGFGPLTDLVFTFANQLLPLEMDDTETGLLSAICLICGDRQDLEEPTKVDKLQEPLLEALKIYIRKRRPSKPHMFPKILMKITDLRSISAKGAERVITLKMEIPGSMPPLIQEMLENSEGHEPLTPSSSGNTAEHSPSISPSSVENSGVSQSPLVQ
# T1 sequence (P13631 whole entry, looked up, one chain of several): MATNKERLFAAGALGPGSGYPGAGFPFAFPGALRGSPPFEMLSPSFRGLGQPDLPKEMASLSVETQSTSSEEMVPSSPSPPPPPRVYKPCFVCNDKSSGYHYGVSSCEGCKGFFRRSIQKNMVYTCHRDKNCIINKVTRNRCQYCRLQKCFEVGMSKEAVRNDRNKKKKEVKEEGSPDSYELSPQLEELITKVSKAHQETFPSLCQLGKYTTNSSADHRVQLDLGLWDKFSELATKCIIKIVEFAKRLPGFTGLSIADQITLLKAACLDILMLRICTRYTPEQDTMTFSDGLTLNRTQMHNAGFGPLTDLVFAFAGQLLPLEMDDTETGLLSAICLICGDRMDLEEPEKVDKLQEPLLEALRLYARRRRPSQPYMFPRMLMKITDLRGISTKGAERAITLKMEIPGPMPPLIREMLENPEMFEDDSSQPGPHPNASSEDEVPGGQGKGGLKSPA
Activity [2],Activity [4],Activity [5],Activity [6],Activity [7],Activity [8],Activity [9],Activity [10],Activity [11],Activity [12],Structure (SMILES),Activity (F9 [1]),Activity (F9 [3]),Activity (F9 [13])
Active,inactive,inactive,Active,Active,Active,,,,,CC(C)C1=CC2=CC[C@@H]3[C@](C)(CCC[C@@]3(C)C(=O)O)[C@H]2CC1,Active,inactive,
inactive,inactive,inactive,inactive,Active,,Active,inactive,Active,inactive,C=C[C@]1(C)C=C2CC[C@H]3[C@@](C)(CCC[C@@]3(C)C(=O)O)[C@@H]2CC1,Active,inactive,
,,,,inactive,,,,,,C=C1C[C@@]23CC[C@H]4[C@@](C)(CCC[C@@]4(C)C(=O)O)[C@@H]2CC[C@]1(O)C3,,,
Active,inactive,inactive,inactive,Active,Active,,,,,C=C[C@@]1(C)C=C2CC[C@@H]3[C@](C)(CCC[C@@]3(C)C(=O)O)[C@H]2CC1,Active,inactive,
,,,,inactive,,,,,,COC(=O)[C@H](C)NC(=O)[C@]1(C)CCC[C@]2(C)c3ccc(C(C)C)cc3CC[C@@H]12,,,
,,,,,Active,,,,,CC1=C(/C=C/C(C)=C/C=C/C(C)=C/C(=O)O)C(C)(C)CCC1,,,Active
